From patent publication US20060211697A1, “2-(2 Or 4-substituted aryloxy)-phenol derivatives as antibacterial agents” (priority 2004, published 2006)
Converted amounts (≈) assume the structure as drawn. Where two headings read alike, the source gives them in different places.

Legend:
S. pneumoniae 11733 = experiment: MIC, broth dilution method, S. pneumoniae; format: cell-based
Protocol: (§1) Minimum Inhibition Concentration (MIC), Broth Dilution Method:
(§2) The compounds of the present invention were tested against an assortment of Gram positive and Gram negative organisms using standard microtitration techniques well known to those skilled in the art. Cultures of bacteria are initially brought up from the freezer by streaking a loopful onto agar plates under the appropriate conditions. For instance bacterial stocks are streaked onto chocolate agar and then incubated for 18 hours at 35-37° C. in a 5% CO2 incubator. Five to ten colonies are picked from the chocolate agar plate for subculture to Brain-Heart infusion (BHI) broth, Mueller Hinton broth, or BHI containing 4% serum and incubated under the appropriate conditions. The ability of the test compound to act as an antimicrobial is determined by the ability to inhibit bacterial growth in vitro. The optical density of the culture of organisms in the presence of an active compound is compared to the optical density of the same organism untreated. The activity of the compounds is described as either negative or the lowest concentration inhibiting growth (Minimum Inhibitory Concentration [MIC]).

H. influenzae 43095 = experiment: MIC, broth dilution method, H. influenzae; format: cell-based
Protocol: as §1, §2

E. coli 43888 = experiment: MIC, broth dilution method, E. coli; format: cell-based
Protocol: as §1, §2

S. aureus 29213 = experiment: MIC, broth dilution method, S. aureus; format: cell-based
Protocol: as §1, §2

[1] = Streptococcus pneumoniae, 11733, Gram-positive bacteria, in vitro, broth dilution, read-out: MIC S. pneumoniae 11733
[2] = Haemophilus influenzae, 43095, Gram-negative bacteria, in vitro, broth dilution, read-out: MIC H. influenzae 43095
[3] = Escherichia coli, 43888, Gram-negative bacteria, in vitro, broth dilution, read-out: MIC E. coli 43888
[4] = Staphylococcus aureus, 29213, Gram-positive bacteria, in vitro, broth dilution, read-out: MIC S. aureus 29213

Structure (SMILES)	melting point	MIC (S. pneumoniae 11733; [1])	MIC (H. influenzae 43095; [2])	MIC (E. coli 43888; [3])	MIC (S. aureus 29213; [4])	other results
Cc1ccc(Oc2ccc(-n3cccc3)cc2)c(O)c1	95 to 96 °C	–	–	–	–	–
Cc1ccc(Oc2ccc(-c3ccsc3)cc2O)c(O)c1	143 to 145 °C	–	–	–	–	–
N/C(=N\O)c1ccccc1Oc1ccc(F)cc1O	64 to 65 °C	–	–	–	–	–
Cc1ccc(Oc2ccccc2/C(N)=N/O)c(O)c1	85 to 87 °C	–	–	–	–	–
CCOC(=O)c1nc(-c2ccccc2Oc2ccc(F)cc2O)no1	82 to 83 °C	–	–	–	–	–
O=C(O)c1nc(-c2ccccc2Oc2ccc(F)cc2O)no1	127 to 128 °C	–	–	–	–	–
Cc1ccc(Oc2ccc([N+](=O)[O-])cc2-c2ncon2)c(O)c1	159 to 160 °C	–	–	–	–	–
Cc1ccc(Oc2ccccc2-c2noc(=O)[nH]2)c(O)c1	213 to 214 °C	–	–	–	–	–
Cc1ccc(Oc2ccc(-c3noc(=O)[nH]3)cc2)c(O)c1	195 to 198 °C	–	–	–	–	–
COC(=O)C1CSC(c2ccc(Oc3ccc(C)cc3O)cc2)N1 (centres unmarked)	134 to 135 °C	–	–	–	–	–
COC(=O)c1cn(-c2ccccc2Oc2ccc(C)cc2O)nn1	153 to 155 °C	–	–	–	–	–
COC(=O)c1cn(-c2ccc(Oc3ccc(C)cc3O)cc2)nn1	148 to 151 °C	–	–	–	–	–
CCOC(=O)c1cnn(-c2ccccc2Oc2ccc(C)cc2O)c1	118 to 119 °C	–	–	–	–	–
Cc1ccc(Oc2ccc(-c3ccco3)cc2O)c(O)c1 [Example 4, 2-(2-Hydroxy-4-methyl-phenoxy)-5-(furan-2-yl)-phenol]	–	1 µg/mL (≈ 3.54 µM)	7.9 µg/mL (≈ 28 µM)	0.5 µg/mL (≈ 1.77 µM)	2 µg/mL (≈ 7.08 µM)	–
Oc1cc(F)ccc1Oc1ccc(-c2ccco2)cc1O [Example 12, 5-(Furan-2-yl)-2-(4-fluoro-2-hydroxy-phenoxy)-phenol]	–	0.5 µg/mL (≈ 1.75 µM)	7.9 µg/mL (≈ 27.6 µM)	2 µg/mL (≈ 6.99 µM)	4 µg/mL (≈ 14 µM)	–
Cc1ccc(Oc2ccc([N+](=O)[O-])cc2-c2nnn[nH]2)c(O)c1 [Example 16, 5-Methyl-2-[4-nitro-2-(1H-tetrazol-5-yl)-phenoxy]-phenol and 5-methyl-2-[4-nitro-2-(2H-tetrazol-5-yl)-phenoxy]-phenol]	–	7.9 µg/mL (≈ 25.2 µM)	31.3 µg/mL (≈ 99.9 µM)	31.3 µg/mL (≈ 99.9 µM)	2 µg/mL (≈ 6.38 µM)	–
Oc1cc(F)ccc1Oc1ccc(Cl)cc1-c1nnn[nH]1 [Example 18, 2-[4-Chloro-2-(1H-tetrazol-5-yl)-phenoxy]-5-fluoro-phenol and 2-[4-chloro-2-(2H-tetrazol-5-yl)-phenoxy]-5-fluoro-phenol]	–	0.25 µg/mL (≈ 0.815 µM)	4 µg/mL (≈ 13 µM)	7.9 µg/mL (≈ 25.8 µM)	0.125 µg/mL (≈ 0.408 µM)	–
Oc1cc(Cl)ccc1Oc1ccc(Cl)cc1-c1nnn[nH]1 [Example 19, 5-chloro-2-[4-Chloro-2-(1H-tetrazol-5-yl)-phenoxy]-phenol and 5-chloro-2-[4-chloro-2-(2H-tetrazol-5-yl)-phenoxy]-phenol]	–	2 µg/mL (≈ 6.19 µM)	2 µg/mL (≈ 6.19 µM)	4 µg/mL (≈ 12.4 µM)	0.125 µg/mL (≈ 0.387 µM)	–

Structure (SMILES)	melting point	MIC (S. pneumoniae 11733; [1])	MIC (H. influenzae 43095; [2])	MIC (E. coli 43888; [3])	MIC (S. aureus 29213; [4])	other results
Oc1ccccc1Oc1ccccc1-c1nnn[nH]1 [Example 20, 2-[2-(1H-Tetrazol-5-yl)-phenoxy]-phenol and 2-[2-(2H-tetrazol-5-yl)-phenoxy]-phenol]	–	4 µg/mL (≈ 15.7 µM)	4 µg/mL (≈ 15.7 µM)	2 µg/mL (≈ 7.87 µM)	0.25 µg/mL (≈ 0.983 µM)	–
Cc1ccc(Oc2ccc(-c3nnc(N)o3)cc2)c(O)c1 [Example 24, 2-[4-(5-Amino-[1,3,4]oxadiazol-2-yl)-phenoxy]-5-methyl-phenol]	–	12.5 µg/mL (≈ 44.1 µM)	12.5 µg/mL (≈ 44.1 µM)	6.2 µg/mL (≈ 21.9 µM)	0.8 µg/mL (≈ 2.82 µM)	–
Cc1ccc(Oc2ccc(/C(N)=N/O)cc2)c(O)c1 [Example 30, N-Hydroxy-4-(2-hydroxy-4-methyl-phenoxy)-benzamidine]	–	62.5 µg/mL (≈ 242 µM)	31.3 µg/mL (≈ 121 µM)	0.5 µg/mL (≈ 1.94 µM)	4 µg/mL (≈ 15.5 µM)	–
Cc1ccc(Oc2ccccc2-c2noc(C(=O)O)n2)c(O)c1 [Example 37, 3-[2-(2-Hydroxy-4-methyl-phenoxy)-phenyl]-[1,2,4]oxadiazole-5-carboxylic acid]	–	8 µg/mL (≈ 25.6 µM)	0.5 µg/mL (≈ 1.6 µM)	0.5 µg/mL (≈ 1.6 µM)	0.125 µg/mL (≈ 0.4 µM)	–
Cc1ccc(Oc2ccc([N+](=O)[O-])cc2-c2noc(C(=O)O)n2)c(O)c1 [Example 39, 3-[2-(2-Hydroxy-4-methyl-phenoxy)-5-nitro-phenyl]-[1,2,4]oxadiazole-5-carboxylic acid]	–	> 32 µg/mL	8 µg/mL (≈ 22.4 µM)	4 µg/mL (≈ 11.2 µM)	0.5 µg/mL (≈ 1.4 µM)	–
Cc1ccc(Oc2ccc(-c3noc(C(=O)O)n3)cc2)c(O)c1 [Example 40, 3-[4-(2-Hydroxy-4-methyl-phenoxy)-phenyl]-[1,2,4]oxadiazole-5-carboxylic acid]	–	16 µg/mL (≈ 51.2 µM)	4 µg/mL (≈ 12.8 µM)	8 µg/mL (≈ 25.6 µM)	4 µg/mL (≈ 12.8 µM)	–
Oc1cc(F)ccc1Oc1ccccc1-c1ncon1 [Example 42, 5-Fluoro-2-(2-[1,2,4]oxadiazol-3-yl-phenoxy)-phenol]	–	> 32 µg/mL	1 µg/mL (≈ 3.67 µM)	1 µg/mL (≈ 3.67 µM)	1 µg/mL (≈ 3.67 µM)	–
Cc1ccc(Oc2ccccc2-c2ncon2)c(O)c1 [Example 43, 5-Methyl-2-(2-[1,2,4]oxadiazol-3-yl-phenoxy)-phenol]	–	15.7 µg/mL (≈ 58.5 µM)	4 µg/mL (≈ 14.9 µM)	0.5 µg/mL (≈ 1.86 µM)	0.5 µg/mL (≈ 1.86 µM)	–
Oc1cc(F)ccc1Oc1ccc(Cl)cc1-c1ncon1 [Example 44, 2-(4-Chloro-2-[1,2,4]oxadiazol-3-yl-phenoxy)-5-fluoro-phenol]	–	> 32 µg/mL	2 µg/mL (≈ 6.52 µM)	2 µg/mL (≈ 6.52 µM)	0.5 µg/mL (≈ 1.63 µM)	–
Cc1ccc(Oc2ccc(-c3ncon3)cc2)c(O)c1 [Example 45, 5-Methyl-2-(4-[1,2,4]oxadiazol-3-yl-phenoxy)-phenol]	–	1 µg/mL (≈ 3.73 µM)	4 µg/mL (≈ 14.9 µM)	1 µg/mL (≈ 3.73 µM)	0.5 µg/mL (≈ 1.86 µM)	–
CCOC(=O)c1nc(-c2ccccc2Oc2ccc(Cl)cc2O)no1 [Example 51, 3-[2-(4-Chloro-2-hydroxy-phenoxy)-phenyl]-[1,2,4]oxadiazole-5-carboxylic acid ethyl ester]	–	> 25 µg/mL	3.1 µg/mL (≈ 8.59 µM)	6.2 µg/mL (≈ 17.2 µM)	0.4 µg/mL (≈ 1.11 µM)	–
O=C(O)c1nc(-c2ccccc2Oc2ccc(Cl)cc2O)no1 [Example 54, 3-[2-(4-Chloro-2-hydroxy-phenoxy)-phenyl]-[1,2,4]oxadiazole-5-carboxylic acid]	–	3.1 µg/mL (≈ 9.32 µM)	0.2 µg/mL (≈ 0.601 µM)	0.2 µg/mL (≈ 0.601 µM)	0.05 µg/mL (≈ 0.15 µM)	–
Oc1cc(Cl)ccc1Oc1ccccc1-c1ncon1 [Example 57, 5-Chloro-2-(2-[1,2,4]oxadiazol-3-yl-phenoxy)-phenol]	–	6.2 µg/mL (≈ 21.5 µM)	0.05 µg/mL (≈ 0.173 µM)	0.05 µg/mL (≈ 0.173 µM)	0.05 µg/mL (≈ 0.173 µM)	–
Cc1ccc(Oc2ccccc2NN)c(O)c1 [Example 66, 2-(2-Hydrazino-phenoxy)-5-methyl-phenol]	–	–	–	–	–	MIC (S. pneumoniae 11733; Streptococcus pneumoniae, 11733, read-out: MIC S. pneumoniae 11733): 3.1 µg/mL (≈ 13.5 µM); MIC (H. influenzae 43095; Haemophilus influenzae, 43095, read-out: MIC H. influenzae 43095): 0.1 µg/mL (≈ 0.434 µM); MIC (E. coli 43888; Escherichia coli, 43888, read-out: MIC E. coli 43888): 0.8 µg/mL (≈ 3.47 µM); MIC (S. aureus 29213; Staphylococcus aureus, 29213, read-out: MIC S. aureus 29213): 0.1 µg/mL (≈ 0.434 µM)
Cc1ccc(Oc2ccc(NN)cc2)c(O)c1 [Example 67, 2-(4-Hydrazino-phenoxy)-5-methyl-phenol]	–	6.2 µg/mL (≈ 26.9 µM)	0.1 µg/mL (≈ 0.434 µM)	0.4 µg/mL (≈ 1.74 µM)	0.1 µg/mL (≈ 0.434 µM)	–
CCOC(=O)c1cnn(-c2ccc(Oc3ccc(C)cc3O)cc2)c1 [Example 69, 1-[4-(2-Hydroxy-4-methyl-phenoxy)-phenyl]-1H-pyrazole-4-carboxylic acid ethyl ester]	–	> 25 µg/mL	> 25 µg/mL	1.6 µg/mL (≈ 4.73 µM)	0.2 µg/mL (≈ 0.591 µM)	–
Cc1ccc(Oc2ccc(-n3cc(C(=O)O)cn3)cc2)c(O)c1 [Example 71, 1-[4-(2-Hydroxy-4-methyl-phenoxy)-phenyl]-1H-pyrazole-4-carboxylic acid]	–	12.5 µg/mL (≈ 40.3 µM)	25 µg/mL (≈ 80.6 µM)	> 25 µg/mL	3.1 µg/mL (≈ 9.99 µM)	–
